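Cells were grown in 96-well plates and exposed to each compound for 48 hours at five concentrations; endpoints were interpolated linearly between bracketing concentrations, or set to the highest concentration if not reached. GI50: concentration for 50% inhibition of growth.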 The source made the active and inactive calls. Cut-off read from the data, not from the text of the source: active = GI50 up to about 1.1 µM and inactive = higher.
Legend:
Assay in all cases: NCI tumour cell line growth inhibition, 48 h
HOP-62 = system: HOP-62
OVCAR-3 = system: OVCAR-3
SK-MEL-2 = system: SK-MEL-2
SF-295 = system: SF-295
NCI-H522 = system: NCI-H522
KM12 = system: KM12
IGROV-1 = system: IGROV-1
HOP-92 = system: HOP-92
CAKI-1 = system: CAKI-1
HT-29 = system: HT-29
NCI-H23 = system: NCI-H23
UACC-62 = system: UACC-62
RXF 393 = system: RXF 393
SNB-19 = system: SNB-19
786-0 = system: 786-0
SK-MEL-5 = system: SK-MEL-5
A549 = system: A549
UACC-257 = system: UACC-257

Compound | GI50 (HOP-62) | GI50 (OVCAR-3) | GI50 (SK-MEL-2) | GI50 (SF-295) | GI50 (NCI-H522) | GI50 (KM12) | GI50 (IGROV-1) | GI50 (HOP-92) | GI50 (CAKI-1) | GI50 (HT-29) | GI50 (NCI-H23) | GI50 (UACC-62) | GI50 (RXF 393) | GI50 (SNB-19) | GI50 (786-0) | GI50 (SK-MEL-5) | GI50 (A549) | GI50 (UACC-257)
CCN(CC)CCCNc1[nH]c2ccccc2c2nc3ccc(OC)cc3c1-2 | 1.43 µM (inactive) | 3.31 µM (inactive) | 1.73 µM (inactive) | 1.17 µM (inactive) | 1.46 µM (inactive) | 0.695 µM (active) | 1.71 µM (inactive) | 2.13 µM (inactive) | 2.71 µM (inactive) | 0.521 µM (active) | 1.57 µM (inactive) | 4.68 µM (inactive) | 1.59 µM (inactive) | 1.59 µM (inactive) | 1.16 µM (inactive) | 1.73 µM (inactive) | 1.43 µM (inactive) | 1.79 µM (inactive)
COc1cc(C=C2C(C)=NN(c3cccc(Cl)c3)C23C(Cl)C(=O)N3c2nc3ccccc3s2)ccc1O (stereo not drawn) | 20.4 µM (inactive) | 26.4 µM (inactive) | 17.5 µM (inactive) | 37.1 µM (inactive) | 3.5 µM (inactive) | 5.85 µM (inactive) | 15.8 µM (inactive) | 6.7 µM (inactive) | 26.3 µM (inactive) | 4.53 µM (inactive) | 18.4 µM (inactive) | – | 13.5 µM (inactive) | – | 19.8 µM (inactive) | 17.2 µM (inactive) | – | 23.1 µM (inactive)
COc1cc(NCc2ccc3oc(=O)c(-c4ccccc4)nc3c2)cc(OC)c1OC | > 10 µM (inactive) | > 10 µM (inactive) | > 10 µM (inactive) | > 10 µM (inactive) | > 10 µM (inactive) | > 10 µM (inactive) | > 10 µM (inactive) | > 10 µM (inactive) | > 10 µM (inactive) | > 10 µM (inactive) | > 10 µM (inactive) | > 10 µM (inactive) | > 10 µM (inactive) | > 10 µM (inactive) | > 10 µM (inactive) | > 10 µM (inactive) | > 10 µM (inactive) | > 10 µM (inactive)
Cc1ccc(/C=N/Nc2nc3ccccc3s2)s1 | 26.2 µM (inactive) | 34.9 µM (inactive) | > 100 µM (inactive) | 40.9 µM (inactive) | > 100 µM (inactive) | 49.1 µM (inactive) | 18.8 µM (inactive) | > 100 µM (inactive) | 79.3 µM (inactive) | 40.8 µM (inactive) | > 100 µM (inactive) | 74.6 µM (inactive) | 82.6 µM (inactive) | 51.9 µM (inactive) | 66.5 µM (inactive) | 38.9 µM (inactive) | > 100 µM (inactive) | > 100 µM (inactive)
CC1(C)CC(C#Cc2ccccc2)CC(C)(C)N1O | 16.4 µM (inactive) | 15.9 µM (inactive) | 20.7 µM (inactive) | 15.6 µM (inactive) | – | 17.3 µM (inactive) | 29.9 µM (inactive) | 15.2 µM (inactive) | 20.6 µM (inactive) | 14.2 µM (inactive) | 15.7 µM (inactive) | 17.2 µM (inactive) | 19.5 µM (inactive) | 30.5 µM (inactive) | 22.2 µM (inactive) | 16.1 µM (inactive) | 22.5 µM (inactive) | 16.6 µM (inactive)
COCCCNC(=O)C1=C(C)NC(C)=C(C(=O)NCCCOC)C1 | > 100 µM (inactive) | > 100 µM (inactive) | > 100 µM (inactive) | > 100 µM (inactive) | 9.23 µM (inactive) | > 100 µM (inactive) | 11.3 µM (inactive) | 89.3 µM (inactive) | > 100 µM (inactive) | > 100 µM (inactive) | > 100 µM (inactive) | > 100 µM (inactive) | > 100 µM (inactive) | > 100 µM (inactive) | > 100 µM (inactive) | > 100 µM (inactive) | > 100 µM (inactive) | > 100 µM (inactive)
O=C(O)c1ccccc1/N=N/c1ccc2oc(=O)c(C(=O)Nc3ccccc3)cc2c1 | 35.6 µM (inactive) | 20.4 µM (inactive) | – | 50.2 µM (inactive) | 34.8 µM (inactive) | 31.8 µM (inactive) | 46.5 µM (inactive) | – | – | 38.4 µM (inactive) | 34 µM (inactive) | 22.9 µM (inactive) | 28.4 µM (inactive) | 32.3 µM (inactive) | 70.8 µM (inactive) | 28.4 µM (inactive) | 40.8 µM (inactive) | 24.6 µM (inactive)
Cc1ccc2c(c1)CC1(Cc3c(C)cccc3C1=O)C2=O (stereo not drawn) | 28.5 µM (inactive) | > 100 µM (inactive) | – | 69.8 µM (inactive) | > 100 µM (inactive) | > 100 µM (inactive) | > 100 µM (inactive) | 40.2 µM (inactive) | – | > 100 µM (inactive) | > 100 µM (inactive) | 44.7 µM (inactive) | > 100 µM (inactive) | 37.6 µM (inactive) | > 100 µM (inactive) | > 100 µM (inactive) | > 100 µM (inactive) | > 100 µM (inactive)
COC1(OC)C(N(C)C)=C(Cl)C(=O)/C1=C/C=O | > 100 µM (inactive) | 60.1 µM (inactive) | – | > 100 µM (inactive) | – | – | > 100 µM (inactive) | 47 µM (inactive) | > 100 µM (inactive) | > 100 µM (inactive) | > 100 µM (inactive) | 40 µM (inactive) | – | > 100 µM (inactive) | > 100 µM (inactive) | > 100 µM (inactive) | > 100 µM (inactive) | 83.8 µM (inactive)
OC1CN=C2c3ccccc3C(O)(c3ccc(Cl)cc3)N2C1 (stereo not drawn) | 55.5 µM (inactive) | > 100 µM (inactive) | > 100 µM (inactive) | – | 26.2 µM (inactive) | 52.4 µM (inactive) | 87.9 µM (inactive) | 22 µM (inactive) | > 100 µM (inactive) | 32.9 µM (inactive) | 53.3 µM (inactive) | 45.4 µM (inactive) | 50 µM (inactive) | 60 µM (inactive) | 55 µM (inactive) | > 10 µM (inactive) | > 100 µM (inactive) | –
Clc1ccc(OCc2nnc3sc(SSc4nn5c(COc6ccc(Cl)cc6)nnc5s4)nn23)cc1 | > 100 µM (inactive) | – | > 100 µM (inactive) | > 100 µM (inactive) | 63.1 µM (inactive) | > 100 µM (inactive) | > 100 µM (inactive) | – | – | > 100 µM (inactive) | > 100 µM (inactive) | – | – | > 100 µM (inactive) | > 100 µM (inactive) | 60.8 µM (inactive) | > 100 µM (inactive) | > 100 µM (inactive)
Nc1ccc(-c2nn3c(COc4ccc(Cl)cc4)nnc3s2)cc1 | – | > 100 µM (inactive) | > 100 µM (inactive) | 56.9 µM (inactive) | 65 µM (inactive) | – | > 100 µM (inactive) | – | 54.2 µM (inactive) | > 100 µM (inactive) | > 100 µM (inactive) | > 100 µM (inactive) | 49.3 µM (inactive) | 88.1 µM (inactive) | > 100 µM (inactive) | > 100 µM (inactive) | > 100 µM (inactive) | > 100 µM (inactive)
